Measurements as given in ChEMBL document CHEMBL1154347, “Isoflavones with unusually modified B-rings and their evaluation as antiproliferative agents” (Bioorg Med Chem Lett, 2009).

How the values were obtained:
K562 = assay: Antiproliferative activity against human K562 cells; type: functional
MCF7 = assay: Antiproliferative activity against estrogen receptor expressing human MCF7 cells; type: functional
[1] = Antiproliferative activity against estrogen receptor negative human MDA-MB-436 cells
HeLa = assay: Cytotoxicity against human HeLa cells; type: functional
[2] = Antiproliferative activity against HUVEC cells; type: cell-based; conditions: human

Row | SMILES | GI50 (K562) | GI50 (MCF7) | GI50 [1] | CC50 (HeLa) | GI50 [2]
1 | O=c1c([C@]2(O)CC[C@@H](O)[C@H](O)C2)coc2cc(O)cc(O)c12 | > 162 µM | 84 µM | 138 µM | > 162 µM | > 162 µM
2 | O=c1c2c(O)cc(O)cc2occ1[C@]1(O)CC[C@@H](O)CC1 | – | 75 µM | 147 µM | – | –
3 | COc1c(O)ccc(-c2coc3cc(O)cc(O)c3c2=O)c1O | 48 µM | 15 µM | 32 µM | 77 µM | 64 µM
4 | O=c1c(-c2cc(O)cc(O)c2)coc2cc(O)ccc12 | > 185 µM | 73 µM | 169 µM | 160 µM | > 185 µM
5 | O=c1c(-c2cc(O)cc(O)c2)coc2cc(O)cc(O)c12 | 75 µM | 65 µM | > 174 µM | 134 µM | 133 µM

Further lines, with some results ahead:

Row | GI50 (K562) | GI50 (MCF7) | GI50 [1] | SMILES | CC50 (HeLa) | GI50 [2]
6 | – | 42 µM | 75 µM | COc1cc(-c2coc3cc(O)ccc3c2=O)ccc1O | – | –
7 | – | 122 µM | > 196 µM | O=c1c(-c2ccc(O)cc2)coc2cc(O)ccc12 [DAIDZEIN] | – | –
8 | – | 10 µM | 17 µM | O=c1c(-c2ccc(O)cc2)coc2cc(O)cc(O)c12 [GENISTEIN] | – | –
9 | – | 37 µM | 68 µM | COc1c(O)ccc(-c2coc3cc(O)ccc3c2=O)c1O | – | –
10 | > 172 µM | 6 µM | 17 µM | O=c1c(C2=CCCC(O)C2O)coc2cc(O)cc(O)c12 (stereo not given) | 81 µM | 17 µM
